Measured values taken from patent US7446199B2, “Compositions useful as inhibitors of protein kinases” (Vertex Pharmaceuticals Incorporated, priority 2003, dated 2008).

How the values were obtained:
c-Met = c-Met (Homo sapiens, UniProt P08581); assay: Ki determination for the inhibition of c-Met, coupled enzyme system; assay type: biochemical; conditions: 200 μM ATP, 10 μM polyGluTyr, 80 nM c-Met, 30° C.
Method in brief: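 Coupled pyruvate kinase/lactate dehydrogenase NADH assay with 80 nM c-Met, 200 μM ATP, 10 μM polyGluTyr in pH 7.5 HEPES, 1.5% DMSO at 30° C. Compound (0.006–12.5 μM final, 12-point) preincubated 10 min; ATP started reaction, rates read over 10 min; Ki derived from rate versus inhibitor concentration.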

FLT-3 = biological target: T1, FLT-3 (Homo sapiens, UniProt P36888); assay: Inhibition of FLT-3, radiometric filter-binding assay; assay type: biochemical; conditions: 90 μM ATP, 0.5 mg/mL pE4Y, room temperature
T1 construct: 0.02% BSA and 3 nM FLT-3
T1 sequence (P36888 27-993): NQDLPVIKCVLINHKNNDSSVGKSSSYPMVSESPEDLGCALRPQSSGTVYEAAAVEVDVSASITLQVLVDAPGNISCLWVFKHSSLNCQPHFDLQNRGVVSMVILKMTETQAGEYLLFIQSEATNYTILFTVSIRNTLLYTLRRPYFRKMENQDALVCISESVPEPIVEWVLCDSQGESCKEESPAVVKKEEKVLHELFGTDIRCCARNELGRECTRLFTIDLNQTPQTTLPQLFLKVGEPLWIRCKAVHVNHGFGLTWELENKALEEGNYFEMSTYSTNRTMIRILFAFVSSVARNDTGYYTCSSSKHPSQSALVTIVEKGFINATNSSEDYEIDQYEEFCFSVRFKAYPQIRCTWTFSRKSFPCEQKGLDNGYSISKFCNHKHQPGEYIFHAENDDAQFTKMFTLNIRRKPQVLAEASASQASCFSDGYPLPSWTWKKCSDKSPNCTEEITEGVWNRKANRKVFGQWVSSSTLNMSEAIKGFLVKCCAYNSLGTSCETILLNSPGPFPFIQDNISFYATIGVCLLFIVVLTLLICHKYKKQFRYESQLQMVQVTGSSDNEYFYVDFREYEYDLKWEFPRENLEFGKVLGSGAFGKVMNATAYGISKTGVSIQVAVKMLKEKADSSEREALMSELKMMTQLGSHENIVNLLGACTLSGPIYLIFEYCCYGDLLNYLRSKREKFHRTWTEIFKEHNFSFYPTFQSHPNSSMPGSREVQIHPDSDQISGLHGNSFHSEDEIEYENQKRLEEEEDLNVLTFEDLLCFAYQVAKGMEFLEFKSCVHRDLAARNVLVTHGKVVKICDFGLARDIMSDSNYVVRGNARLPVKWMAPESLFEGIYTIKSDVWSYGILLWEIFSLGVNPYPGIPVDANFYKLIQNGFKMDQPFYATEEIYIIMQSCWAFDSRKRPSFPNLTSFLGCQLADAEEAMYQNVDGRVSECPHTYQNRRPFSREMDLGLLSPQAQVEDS
Method: Compounds were screened for their ability to inhibit FLT-3 activity using a radiometric filter-binding assay. This assay monitors the ^33P incorporation into a substrate poly(Glu, Tyr) 4:1 (pE4Y). Reactions were carried out in a solution containing 100 mM HEPES (pH 7.5), 10 mM MgCl2, 25 mM NaCl, 1 mM DTT, 0.01% BSA and 2.5% DMSO. Final substrate concentrations in the assay were 90 μM ATP and 0.5 mg/mL pE4Y (both from Sigma Chemicals, St Louis, Mo.). The final concentration of compounds is generally between 0.01 and 5 μM. Typically, a 12-point titration was conducted by preparing serial dilutions from 10 mM DMSO stock of test compound. Reactions were carried out at room temperature.
Two assay solutions were prepared. Solution 1 contains 100 mM HEPES (pH 7.5), 10 mM MgCl2, 25 mM NaCl, 1 mg/ml pE4Y and 180 μM ATP(containing 0.3 μCi of [γ-^33P]ATP for each reaction). Solution 2 contains 100 mM HEPES (pH 7.5), 10 mM MgCl2, 25 mM NaCl, 2 mM DTT, 0.02% BSA and 3 nM FLT-3. The assay was run on a 96 well plate by mixing 50 μL each of Solution 1 and […] of the test compounds. The reaction was initiated with Solution2. After incubation for 20 minutes at room temperature, the reaction was stopped with 50 μL of 20% TCA containing 0.4 mM of ATP. All of the reaction volume was then transferred to a filter plate and washed with 5% TCA by a Harvester9600 from TOMTEC (Hamden, Conn.). The amount of ^33P incorporation into pE4y was analyzed by a Packard TopCount Microplate Scintillation Counter (Meriden, Conn.). The data was fitted using Prism software to get an IC50 or Ki.

c-Met, sequence (P08581 25-1390): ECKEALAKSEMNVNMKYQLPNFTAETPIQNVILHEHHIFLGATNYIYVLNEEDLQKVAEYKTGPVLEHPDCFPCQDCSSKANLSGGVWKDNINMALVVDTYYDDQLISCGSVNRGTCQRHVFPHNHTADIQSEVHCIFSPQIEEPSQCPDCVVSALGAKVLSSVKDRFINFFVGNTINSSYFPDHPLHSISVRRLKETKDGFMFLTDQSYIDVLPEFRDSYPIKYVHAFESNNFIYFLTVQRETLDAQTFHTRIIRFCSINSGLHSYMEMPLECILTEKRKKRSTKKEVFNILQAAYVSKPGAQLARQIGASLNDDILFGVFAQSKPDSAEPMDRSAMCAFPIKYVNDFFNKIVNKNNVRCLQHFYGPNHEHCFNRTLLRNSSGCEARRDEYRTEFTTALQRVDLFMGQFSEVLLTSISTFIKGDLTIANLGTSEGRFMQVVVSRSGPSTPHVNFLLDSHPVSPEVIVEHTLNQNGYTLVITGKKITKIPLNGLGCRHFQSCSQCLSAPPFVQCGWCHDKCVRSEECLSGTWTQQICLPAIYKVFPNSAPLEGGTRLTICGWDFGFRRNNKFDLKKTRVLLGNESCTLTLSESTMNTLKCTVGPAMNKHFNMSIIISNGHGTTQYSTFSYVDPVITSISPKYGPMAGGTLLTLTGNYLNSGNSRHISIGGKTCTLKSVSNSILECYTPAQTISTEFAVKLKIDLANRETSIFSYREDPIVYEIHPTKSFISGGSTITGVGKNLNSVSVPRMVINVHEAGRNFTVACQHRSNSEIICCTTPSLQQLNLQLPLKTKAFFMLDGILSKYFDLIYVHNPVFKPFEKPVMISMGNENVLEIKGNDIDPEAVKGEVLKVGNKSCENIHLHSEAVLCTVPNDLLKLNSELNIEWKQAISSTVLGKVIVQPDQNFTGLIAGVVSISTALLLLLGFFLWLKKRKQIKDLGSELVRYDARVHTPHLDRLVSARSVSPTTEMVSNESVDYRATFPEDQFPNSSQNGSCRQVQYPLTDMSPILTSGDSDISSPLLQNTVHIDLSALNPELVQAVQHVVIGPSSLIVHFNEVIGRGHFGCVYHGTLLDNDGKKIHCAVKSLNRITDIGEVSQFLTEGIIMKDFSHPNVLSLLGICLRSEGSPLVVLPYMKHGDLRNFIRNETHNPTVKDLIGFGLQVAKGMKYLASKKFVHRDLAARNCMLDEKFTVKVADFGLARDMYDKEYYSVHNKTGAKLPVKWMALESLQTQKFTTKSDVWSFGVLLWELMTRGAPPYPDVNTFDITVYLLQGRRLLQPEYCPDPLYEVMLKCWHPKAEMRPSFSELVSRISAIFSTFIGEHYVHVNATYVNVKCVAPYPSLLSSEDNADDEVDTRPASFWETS

Structure (SMILES)	Ki (c-Met)	Ki (FLT-3)
CN1CCN(c2ccc(-c3cnc4[nH]cc(-c5oncc5-c5cccc(F)c5F)c4c3)cn2)CC1 [Compound 71, 3-[4-(2,3-Difluoro-phenyl)-isoxazol-5-yl]-5-[6-(4-methyl-piperazin-1-yl)-pyridin-3-yl]-1H-pyrrolo[2,3-b]pyridine]	< 200 nM	< 200 nM
CCN1CCC(c2cnc3[nH]cc(-c4oncc4-c4cccc(F)c4F)c3c2)CC1 [Compound 72, 3-[4-(2,3-Difluoro-phenyl)-isoxazol-5-yl]-5-(1-ethyl-piperidin-4-yl)-1H-pyrrolo[2,3-b]pyridine]	< 200 nM	1000 to 12500 nM
Fc1cccc(-c2cnoc2-c2c[nH]c3ncc(-c4ccccn4)cc23)c1F [Compound 73, 3-(4-(2,3-Difluoro-phenyl)-isoxazol-5-yl)-5-pyridin-2-yl-1H-pyrrolo[2,3-b]pyridine]	< 200 nM	200 to 1000 nM
Fc1cccnc1-c1cnc2[nH]cc(-c3oncc3-c3cccc(F)c3F)c2c1 [Compound 74, 3-[4-(2,3-Difluoro-phenyl)-isoxazol-5-yl]-5-(3-fluoro-pyridin-2-yl)-1H-pyrrolo[2,3-b]pyridine]	< 200 nM	1000 to 12500 nM
Fc1cccc(-c2cnoc2-c2c[nH]c3ncc(-c4ncccn4)cc23)c1F [Compound 75, 3-[4-(2,3-Difluoro-phenyl)-isoxazol-5-yl]-5-pyrimidin-2-yl-1H-pyrrolo[2,3-b]pyridine]	< 200 nM	200 to 1000 nM
Fc1cccc(-c2cnoc2-c2c[nH]c3ncc(-c4c[nH]cn4)cc23)c1F [Compound 76, 3-[4-(2,3-Difluoro-phenyl)-isoxazol-5-yl]-5-(3H-imidazol-4-yl)-1H-pyrrolo[2,3-b]pyridine]	< 200 nM	< 200 nM
Fc1cccc(-c2cnoc2-c2c[nH]c3ncc(-c4cnc5[nH]ccc5c4)cc23)c1F [Compound 77, 3-[4-(2,3-Difluoro-phenyl)-isoxazol-5-yl]-1H,1′H-[5,5′]bi[pyrrolo[2,3-b]pyridinyl]]	< 200 nM	< 200 nM

Next, values leading:

Ki (c-Met)	Ki (FLT-3)	Structure (SMILES)
< 200 nM	200 to 1000 nM	CC(=O)N1CCC(c2cnc3[nH]cc(-c4oncc4-c4cccc(F)c4F)c3c2)CC1 [Compound 63, 1-(4-{3-[4-(2,3-Difluoro-phenyl)-isoxazol-5-yl]-1H-pyrrolo[2,3-b]pyridin-5-yl}-piperidin-1-yl)-ethanone]
< 200 nM	200 to 1000 nM	N#CCC(=O)N1CCC(c2cnc3[nH]cc(-c4oncc4-c4cccc(F)c4F)c3c2)CC1 [Compound 64, 3-(4-{3-[4-(2,3-Difluoro-phenyl)-isoxazol-5-yl]-1H-pyrrolo[2,3-b]pyridin-5-yl}-piperidin-1-yl)-3-oxo-propionitrile]
< 200 nM	< 200 nM	CC(=O)Nc1cccc(-c2cnc3[nH]cc(-c4oncc4-c4cccc(F)c4F)c3c2)c1 [Compound 65, N-(3-{3-[4-(2,3-Difluoro-phenyl)-isoxazol-5-yl]-1H-pyrrolo[2,3-b]pyridin-5-yl}-phenyl)-acetamide]
< 200 nM	200 to 1000 nM	C=Cc1cnc2[nH]cc(-c3oncc3-c3cccc(F)c3F)c2c1 [Compound 66, 3-[4-(2,3-Difluoro-phenyl)-isoxazol-5-yl]-5-vinyl-1H-pyrrolo[2,3-b]pyridine]
< 200 nM	< 200 nM	Fc1cccc(-c2cnoc2-c2c[nH]c3ncc(-c4ccc(N5CCNCC5)cc4)cc23)c1F [Compound 68, 3-[4-(2,3-Difluoro-phenyl)-isoxazol-5-yl]-5-(4-piperazin-1-yl-phenyl)-1H-pyrrolo[2,3-b]pyridine]
< 200 nM	200 to 1000 nM	Fc1ccc(-c2cnc3[nH]cc(-c4oncc4-c4cccc(F)c4F)c3c2)cn1 [Compound 69, 3-[4-(2,3-Difluoro-phenyl)-isoxazol-5-yl]-5-(6-fluoro-pyridin-3-yl)-1H-pyrrolo[2,3-b]pyridine]
< 200 nM	< 200 nM	CN1CCN(c2ccc(-c3cnc4[nH]cc(-c5oncc5-c5cccc(F)c5F)c4c3)cc2)CC1 [Compound 70, 3-[4-(2,3-Difluoro-phenyl)-isoxazol-5-yl]-5-[4-(4-methyl-piperazin-1-yl)-phenyl]-1H-pyrrolo[2,3-b]pyridine methanesulfonate]
